Data reported in ChEMBL document CHEMBL1155184, “Kojic acid-amino acid conjugates as tyrosinase inhibitors” (Bioorg Med Chem Lett, 2009).

Biological target: T1, Tyrosinase (Agaricus bisporus, UniProt O42713)
T1 sequence (O42713 whole entry): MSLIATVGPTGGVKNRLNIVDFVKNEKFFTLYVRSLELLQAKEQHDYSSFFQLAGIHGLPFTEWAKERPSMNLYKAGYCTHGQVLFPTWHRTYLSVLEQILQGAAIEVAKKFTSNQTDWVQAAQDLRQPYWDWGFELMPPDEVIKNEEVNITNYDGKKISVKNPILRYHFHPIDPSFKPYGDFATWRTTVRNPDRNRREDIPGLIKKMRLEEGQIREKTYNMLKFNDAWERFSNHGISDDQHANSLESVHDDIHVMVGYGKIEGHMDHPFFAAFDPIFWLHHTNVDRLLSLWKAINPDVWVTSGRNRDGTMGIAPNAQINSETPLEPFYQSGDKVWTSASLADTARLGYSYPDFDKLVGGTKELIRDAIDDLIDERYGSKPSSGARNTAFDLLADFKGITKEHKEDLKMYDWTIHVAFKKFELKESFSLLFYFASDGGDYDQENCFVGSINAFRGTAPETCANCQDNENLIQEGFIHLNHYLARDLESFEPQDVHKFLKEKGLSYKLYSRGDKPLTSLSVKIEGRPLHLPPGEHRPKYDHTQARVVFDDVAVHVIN
Experiment: Inhibition of mushroom tyrosinase assessed as oxidation of L-DOPA

SMILES: NC(=O)[C@H](Cc1ccccc1)NC(=O)OCc1cc(=O)c(O)co1
- IC50: 14.7 µM
- Ki: 11 µM
